Patent publication US20190255073A1, “ESTERS OF 3-POLYAMINE DERIVATIVES OF BILE ACIDS FOR THE TREATMENT OF INFECTIONS” (VIRBAC, priority 2016, published 2019)
≈ marks a conversion by molar mass, not a printed value.

Columns and labels:
[1] = tested on: P. aeruginosa (1051575); assay: Potentiation of chloramphenicol activity; type: cell-based, Pseudomonas aeruginosa
Experimental: (§1) This method requires the use of a 96-well plate: 100 μL of a liquid culture medium are placed in each well and then seeded with the microbial suspension prepared previously. The required volume to be seeded is calculated for an OD of 0.01, which corresponds to about 5×10^6 bacteria in each well. In this plate, the first line corresponds to a negative control (200 μL of sterile culture medium in each well), the second line corresponds to a positive control (100 μL of sterile culture medium+100 μL of the bacterial suspension), and the third line contains 192 μL of culture medium; 8 μL of compound of formula (I) to be tested are placed in each well. […] 92 μL of bacterial suspension are then added to lines 3 to 8. […] After 24 hours of incubation at 37° C., 40 μL of nitro tetrazolium iodide are added to each well to reveal the presence of live bacteria by staining the medium pink.
(§2) The procedure is identical to that indicated in Example 5 above. […]
(§3) The results are given in table V. They indicate the concentration of compound of formula (I) required to be able to restore the activity of the antibiotic under consideration.

[2] = tested on: S. aureus (340); assay: MIC determination by microplate dilution, S. aureus animal strain; type: cell-based, Staphylococcus aureus; conditions: Staphylococcus aureus, Gram-positive, Mueller-Hinton medium, 24 h, 37° C.
In short: (§4)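 In Mueller-Hinton broth, strains seeded at an OD of 0.01 are exposed to two-fold dilutions of compound (stock 5 mg/mL in DMSO/methanol) for 24 h at 37 °C. Growth is then measured by absorbance at 620 nm.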

[3] = tested on: P. aeruginosa ATCC27853; assay: MIC determination by microplate dilution, P. aeruginosa human strain; type: cell-based, Pseudomonas aeruginosa; conditions: Pseudomonas aeruginosa, ATCC27853, Gram-negative, Mueller-Hinton medium, 24 h, 37° C.
In short: as §4

[4] = tested on: P. aeruginosa (1051575); assay: Potentiation of erythromycin activity; type: cell-based, Pseudomonas aeruginosa; conditions: concentration of compound required with erythromycin 2 μg/mL
Experimental: This method requires the use of a 96-well plate: 100 μL of a liquid culture medium are placed in each well and then seeded with the microbial suspension prepared previously. The required volume to be seeded is calculated for an OD of 0.01, which corresponds to about 5×10^6 bacteria in each well. In this plate, the first line corresponds to a negative control (200 μL of sterile culture medium in each well), the second line corresponds to a positive control (100 μL of sterile culture medium+100 μL of the bacterial suspension), and the third line contains 192 μL of culture medium; 8 μL of compound of formula (I) to be tested are placed in each well. Thereafter, a cascade dilution is performed from this line. […] (1 mg dissolved in 20 mL) are then added to each well of the lines 3 to 8 to obtain a final antibiotic concentration of 2 μg/mL. 92 μL of bacterial suspension are then added to lines 3 to 8. […] After 24 hours of incubation at 37° C., 40 μL of nitro tetrazolium iodide are added to each well to reveal the presence of live bacteria by staining the medium pink.
The procedure is identical to that indicated in Example 5 above. 8 μL of an antibiotic solution under consideration (1 mg dissolved in 20 mL) are added to obtain a final antibiotic concentration of 2 μg/mL instead of 8 μL of a doxycycline solution.
as §3

[5] = tested on: P. aeruginosa (1051575); assay: MIC determination by microplate dilution, P. aeruginosa animal strain; type: cell-based, Pseudomonas aeruginosa; conditions: Pseudomonas aeruginosa, Gram-negative, Mueller-Hinton medium, 24 h, 37° C.
In short: as §4

[6] = tested on: S. intermedius (1051997); assay: MIC determination by microplate dilution, S. intermedius animal strain; type: cell-based, Staphylococcus intermedius; conditions: Staphylococcus intermedius, Gram-positive, Mueller-Hinton medium, 24 h, 37° C.
In short: as §4

[7] = tested on: P. aeruginosa (1051575); assay: Potentiation of the doxycycline activity at 2 μg/mL; type: cell-based, Pseudomonas aeruginosa; conditions: in combination with doxycycline 2 μg/mL; 24 h, 37°
[8] = tested on: C. albicans; assay: Antifungal activity, cascade microdilution, C. albicans; type: cell-based, Candida albicans; conditions: Candida albicans, 24 h, read-out: IC50 (μg/mL) C. albicans
[9] = tested on: E. coli (1956); assay: MIC determination by microplate dilution, E. coli animal strain; type: cell-based, Escherichia coli; conditions: Escherichia coli, Gram-negative, Mueller-Hinton medium, 24 h, 37° C.
In short: as §4

[10] = tested on: P. aeruginosa (1051575); assay: Potentiation of ampicillin activity; type: cell-based, Pseudomonas aeruginosa; conditions: concentration of compound required with ampicillin 4 μg/mL
Experimental: as §1, §2, §3

[11] = tested on: E. coli ATCC28922; assay: MIC determination by microplate dilution, E. coli human strain; type: cell-based, Escherichia coli; conditions: Escherichia coli, ATCC28922, Gram-negative, Mueller-Hinton medium, 24 h, 37° C.
In short: as §4

[12] = tested on: E. faecalis ATCC29212; assay: MIC determination by microplate dilution, E. faecalis human strain; type: cell-based, Enterococcus faecalis; conditions: Enterococcus faecalis, ATCC29212, Gram-positive, Mueller-Hinton medium, 24 h, 37° C.
In short: as §4

With `CC(C)OC(=O)CC[C@@H](C)[C@H]1CCC2C3C(CC[C@@]21C)[C@@]1(C)CC[C@H](NCCCN(CCCN)CCCN)CC1C[C@H]3O` (stereo partly drawn) [(39), isopropyl 3β-(tris(3-aminopropyl)amine)chenodeoxycholate] the “MIC P. aeruginosa (1051575), compound + chloramphenicol” value ([1]; concentration of compound required with chloramphenicol 2 μg/mL) was 4 µg/mL, the “MIC P. aeruginosa (1051575), compound + chloramphenicol” value ([1]; concentration of compound required with chloramphenicol 4 μg/mL) was 2 µg/mL and the MIC [2] was 7 µg/mL (≈ 11.6 µM). For the same compound, the MIC [3] was 28 µg/mL (≈ 46.3 µM), the “MIC P. aeruginosa (1051575), compound + erythromycin” value [4] was 30 µg/mL and the MIC [5] was 28 µg/mL (≈ 46.3 µM). For the same compound, the MIC [6] was 3.5 µg/mL (≈ 5.79 µM), the “MIC - P. aeruginosa (1051575): content of compound of formula (I) to restore the doxycycline activity (at 2 μg/mL)” value [7] was 2 µg/mL and the IC50 [8] was 4 µg/mL (≈ 6.61 µM). The MIC [9] was 28 µg/mL (≈ 46.3 µM), the “MIC P. aeruginosa (1051575), compound + ampicillin” value [10] was 30 µg/mL and the MIC [11] was 14 µg/mL (≈ 23.1 µM). The MIC [12] was 14 µg/mL (≈ 23.1 µM).
